The test system of the first test is human T cells. Briefly: Inhibition of 5-HT-dependent T Cell Proliferation. In kind it is cell-based. The following applies: Homo sapiens, T-cell, monocyte-free human T cells stimulated with PWM and 5-HT; 3H-thymidine incorporation; 7 days. The source says: The in vitro activity of the compounds according to the invention results from their capability to inhibit T cell proliferation, which is previously stimulated by serotonin.
Inhibition of 5-HT-dependent T Cell Proliferation
Peripheral mononuclear blood cells (PBMC) are obtained from the buffy coat of the blood of healthy subjects. After isolation by means of isolymph gradients (Pharmacia), the PBMC are washed twice and used directly. Purified T cells are obtained by E rosette formation with sheep erythrocytes [cf. Blue, M.-L. , J. F. Daley, H. Levine, K. A. Craig and S. F. Schlossmann, 1986, Biosynthesis and surface expression of T8 by peripheral blood T4+cells in vitro, J. Immunol. 137, 1202]. Monocytes are partially removed by adhesion to tissue culture plates or flasks. PBMC, T cells or purified T cells (depleted in monocytes) at 5×10^5 /ml, 100 μl/well are cultured in RPMI 1640 medium with 10% fetal calf serum (GIBCO) and L-glutamine in 96-well microculture plates (Becton--Dickinson)under a 5% CO2 atmosphere at 37° C. for 7 days. The cultures are treated with 1 μCi of ^3 H-thymidine for 6 h on the 7th day and collected on filter paper, and the incorporated radioactivity is determined by means of liquid scintillation counting.
The test substances are dissolved in 10 mM HCl in order to achieve a final concentration of 1 mM in each case. The compounds are diluted serially 3×with medium in order to obtain a final concentration between 33 μM-0.1 μM. PWM (1:200, pokeweed mitogen) and 5-HT (100 μm, serotonin), which contain the test substances, are added to monocyte-free human T cells. The positive control (maximum proliferation) is obtained from cultures containing T cells, PWM and 5-HT. The negative control (minimal proliferation) is obtained from cultures containing T cells and PWM without 5-HT. The inhibitory activity of the test substances is expressed as the IC50 in μM. (see also WO 92/04015)
For orientation: Incorporation of labelled thymidine or its analogues reports DNA synthesis.
In general, IC50 refers to the point on the concentration scale where inhibition reaches its midpoint. Read a low IC50 as greater potency. With `O=C1C2C3c4ccccc4C(c4ccccc43)C2C(=O)N1CCCN1CCN(c2ccc(F)cc2)CC1` (centres unmarked) [Example 1, 13-{3-[4-(4-Fluorophenyl)piperazin-1-yl]-propyl}-9,10-dihydro-9,10[3', 4']-pyrroloanthracene-12,14(11H,15H) dione], the half-inhibitory concentration (IC50) was greater than 10 µM.
Same read-out and setting: in the case of `O=C1C2C3c4ccccc4C(c4ccccc43)C2C(=O)N1CCN1CCN(c2ccccc2)CC1` (centres unmarked) [Example 3] it was greater than 10 µM.
In the case of `O=C1C2C3c4ccccc4C(c4ccccc43)C2C(=O)N1CCCCN1CCN(c2ccccc2)CC1` (centres unmarked) [Example 4], 5 µM corresponded to half-maximal inhibition (IC50).
Same read-out and setting: to `O=C1C2C3c4ccccc4C(c4ccccc43)C2C(=O)N1CCCCN1CCN(c2ccc(F)cc2)CC1` (centres unmarked) [Example 5] belongs greater than 10 µM.
For `O=C1C2C3c4ccccc4C(c4ccccc43)C2C(=O)N1CCCCN1CCN(c2ccccc2F)CC1` (centres unmarked) [Example 6], the IC50 is greater than 10 µM.
For `O=C1C2C3c4ccccc4C(c4ccccc43)C2C(=O)N1CCCN1CCN(c2ccccc2)CC1` (centres unmarked) [Example 7], the IC50 is greater than 10 µM.
The compound `Cc1ccccc1N1CCN(CCCCN2C(=O)C3C4c5ccccc5C(c5ccccc54)C3C2=O)CC1` (centres unmarked) [Example 8] had an IC50 greater than 10 µM.
On the same count and under the same terms, in the case of `O=C1C2C3c4ccccc4C(c4ccccc43)C2C(=O)N1CCCN1CCN(c2ccc(C(F)(F)F)cc2)CC1` (centres unmarked) [Example 10] it was greater than 10 µM.
Regarding `COc1ccc(N2CCN(CCCN3C(=O)C4C5c6ccccc6C(c6ccccc65)C4C3=O)CC2)cc1` (centres unmarked) [Example 12], the IC50 is greater than 10 µM.
The same measure, in the same setting: to `O=C1C2C3c4ccccc4C(c4ccccc43)C2C(=O)N1CCCN1CCN(c2cccc(Cl)c2)CC1` (centres unmarked) [Example 13] belongs greater than 10 µM.
For `Cc1cccc(N2CCN(CCCN3C(=O)C4C5c6ccccc6C(c6ccccc65)C4C3=O)CC2)c1` (centres unmarked) [Example 14], the IC50 is greater than 10 µM.
`O=C1C2C3c4ccccc4C(c4ccccc43)C2C(=O)N1CCCN1CCN(c2cccc(C(F)(F)F)c2)CC1` (centres unmarked) [Example 15] came in with an IC50 greater than 10 µM.
Turning to `COc1cccc(N2CCN(CCCN3C(=O)C4C5c6ccccc6C(c6ccccc65)C4C3=O)CC2)c1` (centres unmarked) [Example 16], the IC50 is greater than 10 µM.
For the compound `O=C1C2C3c4ccccc4C(c4ccccc43)C2C(=O)N1CCCN1CCN(c2ccccc2Cl)CC1` (centres unmarked) [Example 17], the IC50 was greater than 10 µM.
`O=C1C2C3c4ccccc4C(c4ccccc43)C2C(=O)N1CCCN1CCN(c2ccccc2F)CC1` (centres unmarked) [Example 18] gave a 50% inhibitory concentration (IC50) greater than 10 µM.
Regarding `Cc1ccccc1N1CCN(CCCN2C(=O)C3C4c5ccccc5C(c5ccccc54)C3C2=O)CC1` (centres unmarked) [Example 19], the 50% inhibitory concentration (IC50) is greater than 10 µM.
In turn, `CCc1ccccc1N1CCN(CCCN2C(=O)C3C4c5ccccc5C(c5ccccc54)C3C2=O)CC1` (centres unmarked) [Example 20] came in with an IC50 greater than 10 µM.
`COc1ccccc1N1CCN(CCCN2C(=O)C3C4c5ccccc5C(c5ccccc54)C3C2=O)CC1` (centres unmarked) [Example 21] displayed an IC50 greater than 10 µM.
`CCOc1ccccc1N1CCN(CCCN2C(=O)C3C4c5ccccc5C(c5ccccc54)C3C2=O)CC1` (centres unmarked) [Example 22] returned an IC50 greater than 10 µM.
As to `Cc1cccc(C)c1N1CCN(CCCN2C(=O)C3C4c5ccccc5C(c5ccccc54)C3C2=O)CC1` (centres unmarked) [Example 23], the IC50 was greater than 10 µM.
`Cc1ccc(N2CCN(CCCN3C(=O)C4C5c6ccccc6C(c6ccccc65)C4C3=O)CC2)c(C)c1` (centres unmarked) [Example 25] gave an IC50 greater than 10 µM.
On to `COc1ccc(N2CCN(CCCN3C(=O)C4C5c6ccccc6C(c6ccccc65)C4C3=O)CC2)cc1OC` (centres unmarked) [Example 28], for which the IC50 is greater than 10 µM.
The same measure, in the same setting: in the case of `CC12c3ccccc3C(c3ccccc31)C1C(=O)N(CCCN3CCN(c4ccc(F)cc4)CC3)C(=O)C12` (centres unmarked) [Example 31] it was greater than 10 µM; in that of `O=C1C2C3c4ccccc4C(CO)(c4ccccc43)C2C(=O)N1CCCN1CCN(c2ccccc2)CC1` (centres unmarked) [Example 32], greater than 10 µM; in that of `O=C1C2C3c4ccccc4C(Cl)(c4ccccc43)C2C(=O)N1CCCN1CCN(c2ccccc2)CC1` (centres unmarked) [Example 34], greater than 10 µM.
The same measure, in the same setting: in the case of `O=C1C2C3c4ccccc4C(Cl)(c4ccccc43)C2C(=O)N1CCCN1CCN(c2ccc(F)cc2)CC1` (centres unmarked) [Example 35] it was greater than 10 µM; in that of `N#CC12c3ccccc3C(c3ccccc31)C1C(=O)N(CCCN3CCN(c4ccc(F)cc4)CC3)C(=O)C12` (centres unmarked) [Example 36], greater than 10 µM.
Regarding `C=CC12c3ccccc3C(c3ccccc31)C1C(=O)N(CCCN3CCN(c4ccc(F)cc4)CC3)C(=O)C12` (centres unmarked) [Example 37], the half-inhibitory concentration (IC50) is greater than 10 µM.
Compound `O=C1C2C3c4ccccc4C(C=Cc4ccccc4)(c4ccccc43)C2C(=O)N1CCCN1CCN(c2ccc(F)cc2)CC1` (centres unmarked) [Example 38] registered an IC50 greater than 10 µM.
In turn, `O=C1C2C(C(=O)N1CCCN1CCN(c3ccc(F)cc3)CC1)C1(Br)c3ccccc3C2(Br)c2ccccc21` (centres unmarked) [Example 45] had an IC50 greater than 10 µM.
Consider `O=C1C2C3c4ccccc4C(CCl)(c4ccccc43)C2C(=O)N1CCCN1CCN(c2ccc(F)cc2)CC1` (centres unmarked) [Example 48], for which the IC50 came to 10 µM.
With `O=C1C2C3c4ccccc4C(c4ccccc4)(c4ccccc43)C2C(=O)N1CCCN1CCN(c2ccc(F)cc2)CC1` (centres unmarked) [Example 49], the half-maximal inhibitory concentration (IC50) is greater than 50 µM.
Take `O=C1N(CCCN2CCN(c3ccc(F)cc3)CC2)C(=O)C2(Cl)C3c4ccccc4C(c4ccccc43)C12Cl` (centres unmarked) [Example 51]: the IC50 came out at 50 µM.
The same measure, in the same setting: in the case of `Clc1ccccc1N1CCN(CCCCN2CC3C4c5ccccc5C(c5ccccc54)C3C2)CC1` (centres unmarked) [Example 65] it was 0.5 µM.
`Clc1cccc(N2CCN(CCCCN3CC4C5c6ccccc6C(c6ccccc65)C4C3)CC2)c1` (centres unmarked) [Example 66]: half-maximal inhibition (IC50) was put at 2 µM.
Compound `Clc1ccc(N2CCN(CCCCN3CC4C5c6ccccc6C(c6ccccc65)C4C3)CC2)cc1` (centres unmarked) [Example 67] registered an IC50 of 2 µM.
Consider `Clc1ccc(N2CCN(CCCCN3CC4C5c6ccccc6C(c6ccccc65)C4C3)CC2)cc1Cl` (centres unmarked) [Example 68], for which the concentration for half-maximal inhibition (IC50) turned out to be 5 µM.
`Fc1ccc(N2CCN(CCCCN3CC4C5c6ccccc6C(c6ccccc65)C4C3)CC2)cc1` (centres unmarked) [Example 69] showed an IC50 of 0.6 µM.
Still for that read-out and setting: to `COc1ccc(N2CCN(CCCCN3CC4C5c6ccccc6C(c6ccccc65)C4C3)CC2)cc1` (centres unmarked) [Example 70] belongs 0.5 µM; to `FC(F)(F)c1ccc(N2CCN(CCCCN3CC4C5c6ccccc6C(c6ccccc65)C4C3)CC2)cc1` (centres unmarked) [Example 73], 2 µM.
The compound `FC(F)(F)c1ccc(N2CCN(CCCN3CC4C5c6ccccc6C(c6ccccc65)C4C3)CC2)cc1` (centres unmarked) [Example 75] displayed a concentration for half-maximal inhibition (IC50) of 2 µM.
In turn, `Cc1ccc(N2CCN(CCCN3CC4C5c6ccccc6C(c6ccccc65)C4C3)CC2)cc1` (centres unmarked) [Example 76] gave a concentration for half-maximal inhibition (IC50) of 2 µM.
For `COc1ccc(N2CCN(CCCN3CC4C5c6ccccc6C(c6ccccc65)C4C3)CC2)cc1` (centres unmarked) [Example 77], the IC50 stood at 7 µM.
Regarding `Clc1cccc(N2CCN(CCCN3CC4C5c6ccccc6C(c6ccccc65)C4C3)CC2)c1` (centres unmarked) [Example 78], the midpoint of inhibition, the IC50, lay at 5 µM.
`Cc1cccc(N2CCN(CCCN3CC4C5c6ccccc6C(c6ccccc65)C4C3)CC2)c1` (centres unmarked) [Example 79] had an IC50 of 1 µM.
The compound `FC(F)(F)c1cccc(N2CCN(CCCN3CC4C5c6ccccc6C(c6ccccc65)C4C3)CC2)c1` (centres unmarked) [Example 80] came in with an IC50 of 5 µM.
Same read-out and setting: to `Fc1ccccc1N1CCN(CCCN2CC3C4c5ccccc5C(c5ccccc54)C3C2)CC1` (centres unmarked) [Example 83] belongs 7 µM; to `Cc1ccccc1N1CCN(CCCN2CC3C4c5ccccc5C(c5ccccc54)C3C2)CC1` (centres unmarked) [Example 84], 2 µM; to `CCc1ccccc1N1CCN(CCCN2CC3C4c5ccccc5C(c5ccccc54)C3C2)CC1` (centres unmarked) [Example 85], 3 µM.
`COc1ccccc1N1CCN(CCCN2CC3C4c5ccccc5C(c5ccccc54)C3C2)CC1` (centres unmarked) [Example 86] displayed a half-maximal inhibitory concentration (IC50) of 3 µM.
In turn, `Cc1ccc(N2CCN(CCCN3CC4C5c6ccccc6C(c6ccccc65)C4C3)CC2)cc1C` (centres unmarked) [Example 92] registered an IC50 of 2 µM.
As to `COc1ccc(N2CCN(CCCN3CC4C5c6ccccc6C(c6ccccc65)C4C3)CC2)cc1OC` (centres unmarked) [Example 93], half-maximal inhibition (IC50) was put at 10 µM.
`CC12c3ccccc3C(c3ccccc31)C1CN(CCCN3CCN(c4ccccc4)CC3)CC12` (centres unmarked) [Example 94]: the IC50 amounted to 7 µM.
Take `CC12c3ccccc3C(c3ccccc31)C1CN(CCCN3CCN(c4ccc(Cl)cc4)CC3)CC12` (centres unmarked) [Example 95]: the IC50 stood at 5 µM.
In turn, `CC12c3ccccc3C(c3ccccc31)C1CN(CCCN3CCN(c4ccc(F)cc4)CC3)CC12` (centres unmarked) [Example 96] registered an IC50 greater than 10 µM.
For `OCC12c3ccccc3C(c3ccccc31)C1CN(CCCN3CCN(c4ccccc4)CC3)CC12` (centres unmarked) [Example 97], the IC50 was determined as 10 µM.
Regarding `OCC12c3ccccc3C(c3ccccc31)C1CN(CCCN3CCN(c4ccc(F)cc4)CC3)CC12` (centres unmarked) [Example 98], the IC50 is 10 µM.
On the same count and under the same terms, to `ClC12c3ccccc3C(c3ccccc31)C1CN(CCCN3CCN(c4ccccc4)CC3)CC12` (centres unmarked) [Example 99] belongs 8 µM.

The same test, now with this note: monocyte-free human T cells stimulated with PWM and 5-HT; 3H-thymidine incorporation; 7 days.
`CC12c3ccccc3C(C)(c3ccccc31)C1C(=O)N(CCCN3CCN(c4ccc(F)cc4)CC3)C(=O)C12` (centres unmarked) [Example 44] yielded an IC50 greater than 10 µM.

For the origin of these results see patent US5409932A, “Piperazine-substituted pyrroloanthracenes” (Bayer AG, priority 1993, dated 1995).
